A short description of series [1]: Body weight and tolerability in xenograft studies. In kind it is in vivo. The following applies: 20 mg/kg BID peroral, mice bearing NCI-H358 xenograft. The text has this:
(§1) Evaluation of the efficacy of compounds 6, 11 and 13 in the treatment of subcutaneous NCI-H358 Human Lung Cancer Model in NCr nude mice.
(§2) The treatment with compound 6 started when the tumors size reached 170 mm^3 (study 1). This value was 190 mm^3 in the case of compounds 11 and 13 (study 2).
The results of the body weight changes in the tumor bearing mice are shown in FIG. 1 (p.o. is peroral; i.p. is intraperitoneal). The body weight of the animals at the end of the treatment with the three compounds was only slightly below the body weight of the respective vehicle control groups.

For series [2], the system named is A549. Lung carcinoma cell line bearing KRas^G12S oncogenic mutation. The series can be described thus: Antiproliferative MTS assay, A549 cells. Format: cell-based. The following applies: Homo sapiens, A549, 72 h, compounds 1-23 and 47-52 median of experiments, 24-46 estimations and/or preliminary results, read-out: IC50 values: cell proliferation inhibition, A549. As for the experimental part: Cell line #1: A549. Lung carcinoma cell line bearing KRas^G12S oncogenic mutation
(§3) Cell lines were cultured in DMEM or RPMI-1640 supplemented with FBS 10%. In order to assess the antiproliferative effect of compounds, cells were seeded at a density of 1.8×10^3, 6.2×10^3, 7.8×10^3, 21×10^3 and 2×10^3 cells/cm^2, respectively, in tissue culture microplates and were incubated in humidified atmosphere at 5% CO2. 24 h later, compounds dissolved in DMSO 100% were added for different final concentrations ranging between 0.1 and 50 μM for a final DMSO concentration of 0.5% and the plates were incubated for another 72 h. After incubation, proliferation was quantified using CellTiter 96® Aqueous Non-Radioactive Cell Proliferation Assay-MTS (Promega #G5421) following manufacturer instructions. Amount of 490 nm absorbance is directly proportional to the number of living cells. Absorbance was recorded with a BMG Fluostar Optima Microplate Reader and normalized to control with vehicle.

Series [3] concerns PANC-1. epithelioid carcinoma of the pancreas cell line bearing KRas^G12D oncogenic mutation. The series can be described thus: Antiproliferative MTS assay, PANC-1 cells. As to conditions: Homo sapiens, PANC-1, 72 h, compounds 1-23 and 47-52 median of experiments, 24-46 estimations and/or preliminary results, read-out: IC50 values: cell proliferation inhibition, Panc-1. Format: cell-based. The protocol: Cell line #3: PANC-1. epithelioid carcinoma of the pancreas cell line bearing KRas^G12D oncogenic mutation
as §3

The next series has as its system NIH-H358 Cell Line. The series can be described thus: 3D CellTiter-Glo cell viability assay. In kind it is cell-based. The following applies: 168 h, NIH-H358 cells in 0.65% methylcellulose, 7 days' compound treatment. The protocol:
Example 5: Efficacy Testing in 3D Viability Assay for NIH-H358 Cell Line
The protocol to perform 3D CellTiter-Glo™ cell viability assay is as follows:
Day—1: Cell plating • Adjust cell concentrations to 1×10^5 cells/ml with respective medium. (Cell concentration is adjusted according to data base or density optimization assay). Mix 3.5 mL of cell suspension 6.5 mL of 1% methylcellulose. Mix and wait for bubbles to disperse before pipetting. This step yields 10 ml of cell suspension in 0.65% methylcellulose solution. Add 99.5 μL cell suspensions to 96-well plates according to plate map with final cell density. • Two duplicate plates will be set up. One is for day 0 reading (T0) and the other will be cultured in incubator for reading at the end point. • Incubate the plates overnight in humidified incubator at 37° C. with 5% CO2.
Day 0: T0 plate reading and compound treatment • Take T0 plate, add 0.5 μL culture medium to each well for T0 reading. • Add 100 μl CellTiter-Glo® Reagent to each well. • Mix contents for 2 minutes on an orbital shaker to facilitate cell lysis. • Allow the plate to incubate at room temperature for 10 minutes to stabilize luminescent signal. • Record luminescence using EnVision Multi Label Reader. • Dilute the test articles at the concentration indicated at Test Articles Dilution. Add 0.5 μL of each 200× compound working solutions according to plate inoculation map.
Day 7: Plate reading of 7 days' compound treatment • Add 100 μL CellTiter-Glo® Reagent to each well. • Mix contents for 2 minutes on an orbital shaker to facilitate cell lysis. • Allow the plate to incubate at room temperature for 10 minutes to stabilize luminescent signal. • Record luminescence using EnVision Multi Label Reader.

Series [4] deals with RPMI. myeloma cell line bearing KRas^G12A oncogenic mutation. The series can be described thus: Antiproliferative MTS assay, RPMI cells. Format: cell-based. The following applies: 72 h, compounds 1-23 and 47-52 median of experiments, 24-46 estimations and/or preliminary results, read-out: IC50 values: cell proliferation inhibition, RPMI. The protocol: Cell line #4: RPMI. myeloma cell line bearing KRas^G12A oncogenic mutation
as §3

Series [5] has as its system subcutaneous NCI-H358 Human Lung Cancer Model. As to the kind of experiment: Efficacy in xenograft studies (tumor growth inhibition). Format: in vivo, NCr nude mice. As to conditions: for Oral anti-tumor activity: 20 mg/kg BID peroral, subcutaneous NCI-H358 xenograft; for TGI (tumor growth inhibition): NCI-H358 xenograft, NCr nude mice.
Text: as §1, §2
Studies endpoints: The major endpoints of the study included the following:
Tumor growth inhibition (TGI): TGI(%) is an indication of antitumor effectiveness, and it is expressed as: TGI (%)=100×(1−T/C). T and C were the mean tumor volume of the treated and control groups, respectively, on a given day.

Series [6] has as its system H358. non-small cell lung cancer line bearing KRas^G12C oncogenic mutation. As to the kind of experiment: Antiproliferative MTS assay, H358 cells. As to conditions: Homo sapiens, NCI-H358, 72 h, compounds 1-23, 47-52 and Reference Example 1 median of experiments, 24-46 estimations and/or preliminary results, read-out: IC50 values: cell proliferation inhibition, H358. Format: cell-based. The protocol: Cell line #2: H358. non-small cell lung cancer line bearing KRas^G12C oncogenic mutation
as §3

Setting [7] is: Study 2: 20 mg/kg peroral BID × 27 days.

For the compound `CCNC(=O)N1CCc2cc(OC)c(OCCc3ccc(OC)c(N)c3)cc2C1c1ccc(C)cc1C` (stereo not drawn) [Compound 6, 7-(3-amino-4-methoxyphenethoxy)-1-(2,4-dimethylphenyl)-N-ethyl-6-methoxy-3,4-dihydroisoquinoline-2(1H)-carboxamide], the “Tolerability / safety of dose” value in series [1] is “tolerate 20 mg/kg BID and safe”. Also, the IC50 was 600 nM in series [2]; 200 nM in series [3]; 125 nM with NIH-H358 Cell Line; 100 nM in series [4]; 200 nM in series [6]. Besides, the Oral anti-tumor activity result in series [5] is “significant oral anti-tumor activities”. Further, in series [5] (Study 1: 20 mg/kg peroral BID × 29 days), the “TGI (tumor growth inhibition)” value came out at 27.09%.

`CCNC(=O)N1CCc2cc(OC)c(OCCc3ccc(OC)c(N)c3)cc2C1c1ccc(OC)cc1C` (stereo not drawn) [Compound 11]: the “Tolerability / safety of dose” value in series [1] is “tolerate 20 mg/kg BID and safe”. The IC50 in series [2] was 800 nM; in series [3], 200 nM; in the series with NIH-H358 Cell Line, 413 nM; in series [4], 100 nM; in series [6], 200 nM. Besides, the Oral anti-tumor activity entry in series [5] was “significant oral anti-tumor activities”. For the same compound, the “TGI (tumor growth inhibition)” value in series [5] (setting [7]) is 48.22%.

As for `CCNC(=O)N1CCc2cc(OC)c(OCCc3ccc(OC)c(N)c3)cc2C1c1ccc(Cl)cc1C` (stereo not drawn) [Compound 13], in series [1], the “Tolerability / safety of dose” value is “tolerate 20 mg/kg BID and safe”. Besides, the IC50 in series [2] was 1000 nM; in series [3] it was 300 nM; in the series on NIH-H358 Cell Line, 147 nM; in series [4] it was 100 nM; in series [6], 300 nM. Further, the Oral anti-tumor activity entry in series [5] is recorded as “significant oral anti-tumor activities”. In addition, the “TGI (tumor growth inhibition)” value in series [5] (setting [7]) was 26.99%.

Values taken from US20220380357A1, “TETRAHYDROISOQUINOLINE COMPOUNDS” (ALLINKY BIOPHARMA, priority 2019, published 2022).
